For the assay, the target named is T1, hT1R2/hT1R3 sweet receptor expressed in HEK293 cell line (Homo sapiens, UniProt Q7RTX0+Q8TE23).
T1 construct: expressed in transfected cells; host or cells: HEK293 derivative stably expressing Gα15 and hT1R2/hT1R3, clone S-9
T1 sequence (Q8TE23 20-839): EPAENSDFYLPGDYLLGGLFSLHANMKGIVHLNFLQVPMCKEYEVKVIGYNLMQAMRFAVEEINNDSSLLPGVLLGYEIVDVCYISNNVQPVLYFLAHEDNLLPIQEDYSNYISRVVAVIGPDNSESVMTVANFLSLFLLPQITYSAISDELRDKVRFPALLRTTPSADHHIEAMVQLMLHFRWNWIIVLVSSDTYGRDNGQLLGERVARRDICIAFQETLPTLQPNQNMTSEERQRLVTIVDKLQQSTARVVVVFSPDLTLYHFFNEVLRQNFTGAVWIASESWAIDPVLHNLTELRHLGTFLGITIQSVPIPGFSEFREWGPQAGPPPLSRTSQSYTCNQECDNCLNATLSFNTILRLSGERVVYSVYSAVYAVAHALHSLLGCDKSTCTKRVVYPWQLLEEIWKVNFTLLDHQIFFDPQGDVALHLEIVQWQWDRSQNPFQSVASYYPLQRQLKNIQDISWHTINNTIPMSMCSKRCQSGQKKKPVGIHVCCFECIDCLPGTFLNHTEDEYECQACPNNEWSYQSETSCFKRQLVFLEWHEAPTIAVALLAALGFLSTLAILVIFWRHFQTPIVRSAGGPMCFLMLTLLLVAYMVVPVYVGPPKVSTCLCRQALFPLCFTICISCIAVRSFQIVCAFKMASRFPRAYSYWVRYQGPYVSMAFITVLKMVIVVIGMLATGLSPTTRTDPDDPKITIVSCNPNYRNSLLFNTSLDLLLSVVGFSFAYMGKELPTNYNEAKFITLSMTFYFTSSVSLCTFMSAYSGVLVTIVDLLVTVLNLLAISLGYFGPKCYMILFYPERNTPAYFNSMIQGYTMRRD
T1 sequence (Q7RTX0 21-852): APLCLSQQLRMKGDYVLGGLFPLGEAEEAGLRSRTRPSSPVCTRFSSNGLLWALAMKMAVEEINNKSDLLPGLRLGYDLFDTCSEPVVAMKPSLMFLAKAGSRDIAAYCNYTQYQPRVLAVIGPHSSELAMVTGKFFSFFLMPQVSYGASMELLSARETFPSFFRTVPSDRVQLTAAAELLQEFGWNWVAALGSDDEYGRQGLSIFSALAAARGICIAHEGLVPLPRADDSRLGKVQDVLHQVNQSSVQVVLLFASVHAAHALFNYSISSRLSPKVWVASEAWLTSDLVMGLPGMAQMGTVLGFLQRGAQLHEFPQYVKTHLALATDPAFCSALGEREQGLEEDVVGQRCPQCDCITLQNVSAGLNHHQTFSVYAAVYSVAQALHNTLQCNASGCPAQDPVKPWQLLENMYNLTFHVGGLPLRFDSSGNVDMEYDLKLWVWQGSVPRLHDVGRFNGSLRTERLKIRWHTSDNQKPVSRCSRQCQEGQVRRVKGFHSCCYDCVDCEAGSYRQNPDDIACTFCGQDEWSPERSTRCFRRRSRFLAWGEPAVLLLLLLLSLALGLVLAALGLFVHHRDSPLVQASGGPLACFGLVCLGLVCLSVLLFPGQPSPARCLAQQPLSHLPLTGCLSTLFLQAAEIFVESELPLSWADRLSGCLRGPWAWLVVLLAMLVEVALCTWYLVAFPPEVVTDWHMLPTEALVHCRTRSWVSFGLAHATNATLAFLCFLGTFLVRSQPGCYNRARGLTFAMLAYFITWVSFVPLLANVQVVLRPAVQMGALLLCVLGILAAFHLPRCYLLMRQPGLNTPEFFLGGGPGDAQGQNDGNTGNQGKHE
Put plainly: In vitro hT1R2/hT1R3-HEK293 taste receptor activation assay (FLIPR). The class given is cell-based. How it is done:
An HEK293 cell line derivative (Chandrashekar et al., Cell (2000) 100:703-711) that stably expresses Gα15 and hT1R2/hT1R3 (Li et al., Proc Natl Acad Sci USA (2002) 99:4692-4696), see also PCT Publication No. WO 03/001876 A2) was used to identify compounds with sweet taste enhancing properties.
Compounds covered in this document were initially selected based on their activity on the hT1R2/hT1R3-HEK293-Gα15 cell line (Li et al. vide supra). Activity was determined using an automated fluorometric imaging assay on a FLIPR instrument ([…], Molecular Devices, Sunnyvale, Calif.) (designated FLIPR assay). Cells from one clone (designated S-9 cells) were seeded into 384-well plates (at approximately 50,000 cells per well) in a medium containing DMEM Low Glucose (Invitrogen, Carlsbad, Calif.), 10% dialyzed fetal bovine serum (Invitrogen, Carlsbad, Calif.), 100 Units/ml Penicillin G, and 100 μg/ml Streptomycin (Invitrogen, Carlsbad, Calif.) (Li et al. vide supra) see also PCT Publication No. WO 03/001876 A2). S-9 cells were grown for 24 hours at 37° C. S-9 cells were then loaded with the calcium dye Fluo-3AM (Molecular Probes, Eugene, Oreg.), 4 μM in a phosphate buffered saline (D-PBS) (Invitrogen, Carlsbad, Calif.), for 1 hour at room temperature. After replacement with 25 μl D-PBS, stimulation was performed in the FLIPR instrument and at room temperature by the addition of 25 μl D-PBS supplemented with different stimuli at concentrations corresponding to twice the desired final level. Receptor activity was quantified by determining the maximal fluorescence increases (using a 480 nm excitation and 535 nm emission) after normalization to basal fluorescence intensity measured before stimulation.
For dose-responses analysis, stimuli were presented in duplicates at 10 different concentrations ranging from 60 nM to 30 μM. Activities were normalized to the response obtained with 400 mM D-fructose, a concentration that elicits maximum receptor response. EC50s were determined using a non-linear regression algorithm (using a Senomyx, Inc. software), where the Hill slope, bottom asymptotes and top asymptotes were allow to vary. Identical results were obtained when analyzing the dose-response data using commercially available software for non-linear regression analysis such as GraphPad PRISM (San Diego, Calif.).

Setting [1] is: read-out: EC50 for activation of a hT1R2/hT1R3 sweet receptor expressed in HEK293 cell line.

The record followed here is patent publication US7842324B2 (Senomyx, Inc., priority 2005, dated 2010).

Where two headings read alike, the source gives them in different places.

For `CC(C)CNC(=O)C(C)(C)c1ccc(-c2cc(CO)ccc2C=O)cc1` [Compound A92], the EC50 (Table A, read-out: SWEET EC50) was 630 nM.

Consider `CC(C)CCNC(=O)C(C)(C)c1ccc(-c2cncc(C#N)c2)cc1` [Compound A21], for which, for the setting “Table A, read-out: SWEET EC50”, the EC50 was determined as 940 nM.

As for `CC(C)CNC(=O)C(C)(C)c1cc(-c2ccccc2)no1` [Compound 33, N-isobutyl-2-methyl-2-(3-phenylisoxazol-5-yl)propanamide], the EC50 under setting [1] came to 6750 nM.

Take `CC(C)CNC(=O)C(C)(C)c1ccc(-c2cccc(C#N)n2)cc1` [Compound A81]: the EC50 (Table A, read-out: SWEET EC50) is 670 nM.

`CC(C)CNC(=O)C(C)(C)c1ccc(-c2cncc(C#N)c2)nc1` [Compound 40, 2-(5′-cyano-2,3′-bipyridin-5-yl)-N-isobutyl-2-methylpropanamide]: the EC50 under setting [1] is 2190 nM.

On to `CC(C)CNC(=O)C(C)(C)c1nc(-c2ccccc2)no1` [Compound 41, N-isobutyl-2-methyl-2-(3-phenyl-1,2,4-oxadiazol-5-yl)propanamide], for which, under setting [1], the EC50 stood at 6530 nM.

As for `CCC(CC)NC(=O)C(C)(C)c1ccc(-c2cncc(C#N)n2)cc1` [Compound A40], for the setting “Table A, read-out: SWEET EC50”, the EC50 turned out to be 30 nM.

Take `CC(C)CNC(=O)C(C)(C)c1ccc(-c2cccc3c2COCOC3)cc1` [Compound A79]: the EC50 (Table A, read-out: SWEET EC50) amounted to 670 nM.

With `COC(=O)c1ccccc1-c1ccc(C(C)(C)C(=O)NCC(C)C)cc1` [Compound A15], the EC50 (Table A, read-out: SWEET EC50) came out at 4000 nM.

For `CCCNC(=O)C(C)(C)c1ccc(-c2cncc(COC)c2)cc1` [Compound A29], the EC50 (Table A, read-out: SWEET EC50) came out at 2910 nM.

As for `CC(C)CNC(=O)C(C)(C)c1ccc(-n2cccc2)cc1` [Compound 28, 2-(4-(1H-pyrrol-1-yl)phenyl)-N-isobutyl-2-methylpropanamide], the EC50 under setting [1] came to 350 nM.

In the case of `CC(C)CNC(=O)C(C)(C)c1ccc(-c2coc(C(=O)O)c2)cc1` [Compound A66], the EC50 (Table A, read-out: SWEET EC50) is 1370 nM.

For the molecule `CCc1ccccc1-c1ccc(C(C)(C)C(=O)NCC(C)C)cc1` [Compound A13], the EC50 (Table A, read-out: SWEET EC50) turned out to be 7000 nM.

On to `CCC(CO)NC(=O)C(C)(C)c1ccc(-c2ccoc2)cc1` (stereo not shown) [Compound A77], for which, where the note is “Table A, read-out: SWEET EC50”, the EC50 was 1250 nM.

Take `COc1cccc(-c2ccc(C(C)C(=O)NCC(C)C)cc2)c1` (stereo not shown) [Compound A7]: the EC50 (Table A, read-out: SWEET EC50) was found to be 5580 nM.

Turning to `CC[C@@H](C)NC(=O)C(C)(C)c1ccc(-c2cccc(COC)c2)cc1` [Compound A53], the EC50 (Table A, read-out: SWEET EC50) was determined as 550 nM.

Turning to `CC(C)(C(=O)NC1CCCCC1)c1ccc(-c2cncc(C#N)c2)cc1` [Compound A86], the EC50 (Table A, read-out: SWEET EC50) is 180 nM.

As to `CC(C)(C(=O)NC1CCCCC1)c1ccc(-c2cncnc2)cc1` [Compound A89], the EC50 (Table A, read-out: SWEET EC50) came to 410 nM.

Take `CC(C)(C(=O)NC[C@@H]1CCCO1)c1ccc(-c2cncc(C#N)c2)cc1` [Compound A27]: the EC50 (Table A, read-out: SWEET EC50) came to 2060 nM.

As for `CCC(C(=O)NCC(C)C)c1ccc(-c2ccccc2)cc1` (stereo not shown) [Compound A93], the EC50 (Table A, read-out: SWEET EC50) is 900 nM.

As for `CCC(COC)NC(=O)C(C)(C)c1ccc(-c2ccccc2)c(F)c1` (stereo not shown) [Compound 6, 2-(2-fluorobiphenyl-4-yl)-N-(1-methoxybutan-2-yl)-2-methylpropanamide], the EC50 under setting [1] was determined as 3810 nM.

As to `CC(C)(C(=O)N[C@@H](O)c1ccccc1)c1ccc(-c2cncc(C#N)c2)cc1` [Compound A28], for the setting “Table A, read-out: SWEET EC50”, the EC50 came out at 2060 nM.

In the case of `CC[C@@H](CO)NC(=O)C(C)(C)c1ccc(-c2cncc(C#N)c2)cc1` [Compound A75], the EC50 (Table A, read-out: SWEET EC50) is 680 nM.

For the molecule `CC(C)(C(=O)NCc1ccoc1)c1ccc(-c2cncc(C#N)n2)cc1` [Compound A54], the EC50 (Table A, read-out: SWEET EC50) stood at 590 nM.

`CC(C)(C(=O)NC1CCCC1)c1ccc(-c2cncc(C#N)n2)cc1` [Compound A43]: the EC50 (Table A, read-out: SWEET EC50) came out at 130 nM.

Consider `CCC(CC)CNC(=O)C(C)(C)c1ccc(-c2cncc(C#N)c2)cc1` [Compound A91], for which the EC50 (Table A, read-out: SWEET EC50) worked out at 620 nM.

`Cc1ccccc1-c1ccc(C(C)(C)C(=O)NCC(C)C)cc1` [Compound 12, N-isobutyl-2-methyl-2-(2′-methylbiphenyl-4-yl)propanamide]: under setting [1], the EC50 worked out at 1900 nM.

With `Cc1cscc1-c1ccc(C(C)(C)C(=O)NCC(C)C)cn1` [Compound A59], the EC50 (Table A, read-out: SWEET EC50) was found to be 1050 nM.

Regarding `CC(C)NC(=O)C(C)(C)c1ccc(-c2cncc(C#N)n2)cc1` [Compound A55], the EC50 (Table A, read-out: SWEET EC50) was found to be 650 nM.

For `CC(C)CNC(=O)C(C)c1ccc(-c2ccccc2)cc1` (stereo not shown) [Compound A5], the EC50 (Table A, read-out: SWEET EC50) stood at 4260 nM.

Take `CC(C)CNC(=O)C(C)(C)c1ccc(-c2cncc(C#N)c2)cn1` [Compound 42, 2-(5′-cyano-3,3′-bipyridin-6-yl)-N-isobutyl-2-methylpropanamide]: the EC50 under setting [1] was determined as 10600 nM.

`CC(C)CNC(=O)C(C)(C)c1ccc(-c2ccccc2)c(F)c1` [Compound A3]: the EC50 (Table A, read-out: SWEET EC50) came out at 1710 nM.

For `CC(NC(=O)C(C)(C)c1ccc(-c2cncc(C#N)n2)cc1)c1ccco1` (stereo not shown) [Compound 48, 2-(4-(6-cyanopyrazin-2-yl)phenyl)-N-(1-(furan-2-yl)ethyl)-2-methylpropanamide], under setting [1], the EC50 was found to be 190 nM.

`CC(C)CNC(=O)C(C)c1ccc(-c2ccccc2)c(F)c1` (stereo not shown) [Compound 3, 2-(2-fluorobiphenyl-4-yl)-N-isobutylpropanamide]: the EC50 under setting [1] is 2800 nM.

As to `CC[C@@H](CO)NC(=O)C(C)(C)c1ccc(-c2cncc(C#N)n2)cc1` [Compound 51, (S)-2-(4-(6-cyanopyrazin-2-yl)phenyl)-N-(1-hydroxybutan-2-yl)-2-methylpropanamide], the EC50 under setting [1] is 1030 nM.

With `CC(C)CNC(=O)C(C)(C)c1ccc(-c2cnc3ccccn23)cc1` [Compound A25], the EC50 (Table A, read-out: SWEET EC50) was found to be 1230 nM.

As to `CC[C@@H](C)NC(=O)C(C)(C)c1ccc(-c2cncc(COC)c2)cc1` [Compound A58], the EC50 (Table A, read-out: SWEET EC50) is 1050 nM.

In the case of `CC(C)CNC(=O)C(C)(C)c1ccc(-c2cncnc2)cc1` [Compound A11], for the setting “Table A, read-out: SWEET EC50”, the EC50 was 2130 nM.

For the molecule `CCC(C)CNC(=O)C(C)(C)c1ccc(-c2cncc(COC)c2)cc1` (stereo not shown) [Compound A70], the EC50 (Table A, read-out: SWEET EC50) amounted to 510 nM.

With `COCc1cccc(-c2ccc(C(C)(C)C(=O)NCC(C)C)cn2)c1` [Compound A31], the EC50 (Table A, read-out: SWEET EC50) was determined as 3790 nM.
